Assay: storage stability with respect to degradation impurities (OXTP impurity)
Type: physicochemical
Settings: for stability with respect to impurities such as OXTP impurity: stored in presence of desiccant

| SMILES | stability with respect to impurities such as OXTP impurity | degradation during storage leading to impurities such as OXTP impurity (during the storage) |
| --- | --- | --- |
| CC(=O)Oc1cc2c(s1)CCN(C(C(=O)C1CC1)c1ccccc1F)C2.Cl (racemic) [prasugrel hydrochloride, 5-[(1RS)-2-cyclopropyl-1-(2-fluorophenyl)-2-oxoethyl]-4,5,6,7-tetrahydrothieno[3,2-c]pyridin-2-yl acetate hydrochloride] | greater stability | – |
| CC(=O)Oc1cc2c(s1)CCN(C(C(=O)C1CC1)c1ccccc1F)C2 (stereo not drawn) [prasugrel, 5-(2-cyclopropyl-1-(2-fluorophenyl)-2-oxoethyl)-4,5,6,7-tetrahydrothieno[3,2-c]pyridin-2-yl acetate] | greater stability | degrades during the storage |
